In US20120065365A1, “Stable Radiopharmaceutical Compositions and Methods for Their Preparation” (BRACCO IMAGING S.P.A., priority 2003, published 2012):
Where two headings read alike, the source gives them in different places.

Columns and labels:
[1] = format: physicochemical; settings: ^177Lu-A (2.7-3.7 mCi) prepared in presence of 1 mg/mL stabilizer
Description: The injection volume was 10 μL.
Each individual stabilizer was prepared at a concentration of 1 mg/mL in sodium acetate (NaOAc) buffer (0.2 M, pH 4.8). […] The reaction mixture was heated to 100° C. for 5 minutes, and then cooled for 5 minutes in an ambient-temperature water hath. To each sample, 10 μL of 2% Na2EDTA.2H2in water was added, and then each was divided into two 100-μL aliquots. One aliquot was analyzed by HPLC (Method 5) and then stored at room temperature in a sealed lead container for 24 hours. The other aliquot was stored frozen (−10° C.) for 24 hours. Each sample was analyzed at t=24 h.

[2] = format: physicochemical; settings: ^177Lu-A (3.6 mCi) prepared in presence of 2.5 mg/mL stabilizer
Description: To lead-shielded 4-mL vials was added 200 μL of the individual NaOAc-stabilizer solutions, 3.58 mCi ^177LuCl3 (avg) and 5.08 μg COMPOUND A (dissolved in water). The ratio of COMPOUND A to Lutetium was 3:1 for all samples. The reaction mixtures were heated to 100° C. for 5 minutes, then cooled, treated with Na2EDTA.2H2O, subdivided and stored as described in Example 9. The radiochemical purity (RCP) percentage data obtained are listed Table 12.

[3] = Labeling efficiency and stability of ^111In-B with selenomethionine 2.5 mg/mL (Example 21); format: physicochemical
Description: A solution of L-selenomethionine (20 mg/mL) was prepared by dissolving it in NaOAc buffer (0.2 M, pH 4.0). To a lead-shielded 2-mL vial was added 111 μL of NaOAc buffer (0.2 M, pH 4.0), 25 μL selenomethionine solution (0.5 mg of Se-Met), 4 μL of COMPOUND B (20 μg in 0.01 N HCl) and 1.0 mCi ^111InCl3 in 60 μL of 0.05 N HCl. A control reaction was run containing all reagents above, but substituting NaOAc buffer for the Se-Met solution. The reaction mixtures were heated at 100° C. for 15 minutes, and then cooled for 1 minute in an ambient-temperature water bath. To each sample, 200 μL of stabilizing solution (0.2% HSA, 5% ascorbic acid, 0.9% benzyl alcohol, 20 mM Se-Met in 50 mM citrate buffer, pH 5.3) and 2 μL of 1% Na2EDTA.2H2O in water were added, and then each was analyzed stored at room temperature for up to 6 hours and analyzed by HPLC as described below. HPLC conditions: Vydac C18 column, 4.6×250 mm, 5 μM, 1.5 mL/min flow rate at 30° C. Solvent A: 0.1% TFA in water; Solvent B: 0.085% TFA in acetonitrile. Gradient: 80% A/20% B isocratic for 20 min, ramp up to 40% A/60% B in 5 min, hold for 5 mm, return to 80% A/20% B in 5 min.

[4] = Radiostability (RCP, Met═O by HPLC) of preformed ^177Lu-A with individual amino acids added (Example 1); format: physicochemical; settings: amino acid 6.6 mg/mL, room temperature
Description: (§1) The injection volume was 20 μL.
Solutions of the individual amino acids L-Methionine, L-Selenomethionine, L-cysteine HCl.H2O, L-Tryptophan, L-Histidine, and Glycine were prepared at a concentration of 10 mg/mL in 10 mM Dulbecco's phosphate-buffered saline, pH 7.0 [PBS].
The final radioactive concentration of each sample was ˜20 mCi/mL.

[5] = format: physicochemical
Description: The reaction vial was crimp-sealed and heated at 100° C. for 5 min. […] The sample was stored in an autosampler in which the temperature is ˜6° C. […] than room temperature, and analyzed by RP-HPLC for up to 24 hours.
L-Selenomethionine: ^177Lu-B was prepared, diluted and analyzed as described above, but 5 mg of L-Se-Met was used in place of PDTC, the heating time was 10 minutes, and the quantity of radioactivity used was 52 mCi.
L-cysteine ethyl ester, HCl: ^177Lu-B was prepared, diluted and analyzed as described above, but 5 mg of L-CEE, hydrochloride salt was used in place of PDTC, the heating time was 5 minutes and the quantity of radioactivity used was 50 mCi.
L-cysteine HCl.H2O: ^177Lu-B was prepared, diluted and analyzed as described above, but 5 mg of L-Cys HCl.H2O was used in place of PDTC, the heating time was 8 minutes and the quantity of radioactivity used was 53 mCi.

[6] = format: physicochemical; remark: listed apart in the source
Description: as §1
Each stabilizer was prepared at a concentration of 5 mg/mL in sodium acetate (NaOAc) buffer (0.2 M, pH 4.8). To lead-shielded 4-mL vials were added 200 μL of the individual stabilizer solutions, 3.55 mCi ^177LuCl3 (avg) and 5.44 μg COMPOUND A (dissolved in water). A second set of replicates of each sample was prepared, using the individual stabilizers. To these was added 4.37 mCi ^177LuCl3 (avg) and 6.7 μg (avg) COMPOUND A (dissolved in water). The ratio of COMPOUND A to lutetium was 3:1 for all samples. The reaction mixture was heated to 100° C. for 5 minutes then cooled for 5 minutes in an ambient-temperature water bath. To each sample, 10 μL of 2% Na2EDTA.2H2O in water was added, then each was analyzed by HPLC (Method 1 for the first set of replicates; Method 2 for the second set of replicates). The second set of replicates were stored and analyzed again at t=24 h.

[7] = format: physicochemical; remark: listed apart in the source
Description: The reaction vial was crimp-sealed and heated at 100° C. for 10 min. […] The sample was stored in an autosampler in which the temperature is ˜6° C. […] than room temperature, and analyzed by RP-HPLC for up to 120 hours.

[8] = format: physicochemical; settings: Radiolysis Protecting Solution containing L-selenomethionine, room temperature
Description: ^177Lu-A and ^177Lu-B were prepared at a 50 mCi level as described in EXAMPLE 4. Immediately after cooling the reaction mixtures to room temperature, 1 mL of a Radiolysis Protecting solution was added, containing 10 mg/mL gentisic acid; 50 mg/mL ascorbic acid sodium salt; 2 mg/mL HSA; 3.92 mg/mL L-selenomethionine, 0.9% (v:v) benzyl alcohol and 1 mg/mL of Na2EDTA.2H2O in 0.05 M, pH 5.3 citrate buffer. The reaction vials were stored in the autosampler chamber and the stability was analysed by RP-HPLC over time using HPLC Methods 3 [^177Lu-A] or 4 [^177Lu-B].

[9] = Stability in Radiolysis Protecting Solution containing methionine (FIG. 4 and similar study); format: physicochemical; settings: 104 mCi, diluted 1:1 with radiolysis protecting solution (2 mg/mL DL-methionine) added after complex formation, room temperature
Description: Formulations stabilized by such cocktails maintained excellent radiochemical purity (RCP) values (>95% RCP) for as long as 5 days at room temperature. This stabilizing cocktail is added immediately after formation of the radioactive complex, so would be the second vial of a two-vial kit.

[10] = format: physicochemical; settings: 50 mCi/2 mL in Radiolysis Protecting Solution containing L-methionine, room temperature
Description: as §1
A Radiolysis Protecting Solution was prepared to contain 10 mg/mL gentisic acid; 50 mg/mL ascorbic acid sodium salt; 2 mg/mL HSA; 2.98 mg/mL L-methionine, 0.9% (v:v) benzyl alcohol and 1 mg/mL of Na2EDTA.2H2O in 0.05 M, pH 5.3 citrate buffer. […] The mixture was incubated at 100° C. for 5 min, and then cooled to room temperature with a water bath. A 1-mL aliquot of the Radiolysis Protecting Solution was immediately added. The reaction vial was stored in an autosampler chamber and the stability was analyzed by Reversed Phase HPLC over time, using HPLC Methods 3 and 4. The results obtained for ^177Lu-B are shown in the chromatograms in FIG. 9.

## C[Se]CC[C@H](N)C(=O)O [L-Selenomethionine]
[1]; 24 h frozen (−10° C.)
  RCP % t = 24 h (frozen): 99.2%
[1]; 24 h room temp
  RCP % t = 24 h (room temp): 100%
[1]; t = 0 h
  RCP % t = 0 h: 100%
[2]; 24 h frozen
  RCP % t = 24 h (frozen): 94.7%
[2]; 24 h room temp
  RCP % t = 24 h (room temp): 95.6%
[2]; t = 0 h
  RCP % t = 0 h: 95.7%
[3]; ^111In-B (1.0 mCi) prepared in presence of selenomethionine 2.5 mg/mL, stabilizing solution added after, t = 0
  RCP, % t = 0: 98.3%
[3]; ^111In-B prepared in presence of selenomethionine 2.5 mg/mL, room temperature, 6 h
  RCP, % t = 6 h: 96.6%
[4]; ^177Lu-A ~20 mCi/mL (3.5 mCi total), 0-1 h
  0-1 h RCP (%): 100%
[4]; ^177Lu-A ~20 mCi/mL, 24 h
  24-h RCP (%): 99.1%
[4]; ^177Lu-A ~20 mCi/mL, 48 h
  48-h RCP (%): 99.9%
[5]; ^177Lu-B (44-53 mCi) formulated with 5 mg stabilizing compound, 3 h
  (% RCP) 3-h: 94.6%
[5]; ^177Lu-B (44-53 mCi) formulated with 5 mg stabilizing compound, 6 h
  (% RCP) 6-h: 94.4%
[5]; ^177Lu-B (44-53 mCi) formulated with 5 mg stabilizing compound, 9 h
  (% RCP) 9-h: 93.3%
[5]; ^177Lu-B (44-53 mCi) formulated with 5 mg stabilizing compound, 12 h
  (% RCP) 12-h: 92.6%
[5]; ^177Lu-B (44-53 mCi) formulated with 5 mg stabilizing compound, 24 h
  (% RCP) 24-h: 90.6%
[5]; ^177Lu-B (44-53 mCi) formulated with 5 mg stabilizing compound, diluted to ~2 mL, ~6° C. above room temperature, 0 h
  (% RCP) 0-h: 95.0%
[5]; ^177Lu-B formulated with 5 mg stabilizing compound, 0 to 24 h
  RCP Drop over 24 hr: 4.4%
[6]; ^177Lu-A (3.55 mCi avg) prepared in presence of 5 mg/mL stabilizer, HPLC Method 1, t = 0 h
  Replicate 1 RCP % t = 0 h: 57.5%
[6]; ^177Lu-A (4.37 mCi avg) prepared in presence of 5 mg/mL stabilizer, HPLC Method 2, t = 0 h
  Replicate 2 RCP % t = 0 h: 60.6%
[6]; ^177Lu-A (4.37 mCi avg) prepared in presence of 5 mg/mL stabilizer, HPLC Method 2, t = 24 h
  Replicate 2 RCP % t = 24 h: 57.1%

## ^177Lu-B: the ^177Lu complex of DOTA-Gly-Abz4-Gln-Trp-Ala-Val-Gly-His-Leu-Met-NH2
[7]; 110.5 mCi, prepared with L-selenomethionine 2.94 mg/mL, then 4 mL saline with sodium ascorbate 50 mg/mL and benzyl alcohol, 0 hours post-reconstitution
  RCP (%): 99.5%
[7]; L-selenomethionine 2.94 mg/mL plus ascorbate/benzyl alcohol saline, 120 (5 days) hours post-reconstitution
  RCP (%): 99.8%
[7]; L-selenomethionine 2.94 mg/mL plus ascorbate/benzyl alcohol saline, 2 hours post-reconstitution
  RCP (%): 99.6%
[7]; L-selenomethionine 2.94 mg/mL plus ascorbate/benzyl alcohol saline, 3 hours post-reconstitution
  RCP (%): 99.5%
[7]; L-selenomethionine 2.94 mg/mL plus ascorbate/benzyl alcohol saline, 6 hours post-reconstitution
  RCP (%): 99.0%
[7]; L-selenomethionine 2.94 mg/mL plus ascorbate/benzyl alcohol saline, 9 hours post-reconstitution
  RCP (%): 99.4%
[7]; L-selenomethionine 2.94 mg/mL plus ascorbate/benzyl alcohol saline, 12 hours post-reconstitution
  RCP (%): 99.2%
[7]; L-selenomethionine 2.94 mg/mL plus ascorbate/benzyl alcohol saline, 24 hours post-reconstitution
  RCP (%): 99.4%
[8]; 50 mCi level, 0 d
  % RCP 0-d: 95.8%
[8]; 1 d
  % RCP 1-d: 95.7%
[8]; 2 d
  % RCP 2-d: 96.2%
[8]; 3 d
  % RCP 3-d: 96.7%
[8]; 5 d
  % RCP 5-d: 98.4%
[9]
  RCP for 5 days: > 99%
[10]; 0 d
  % RCP 0-d: 99.8%
[10]; 1 d
  % RCP 1-d: 99.3%
[10]; 2 d
  % RCP 2-d: 99.6%
[10]; 5 d
  % RCP 5-d: 99.8%
